From patent US5925632A, “Derivatives of 3-pyrrolidylidene-2-one-cephalsporines” (Hoffmann-La Roche Inc., priority 1995, dated 1999) come the findings set out here.

Common to all, as to assay: MIC, agar dilution method in Mueller Hinton agar
Common to all, as to assay type: cell-based

Experiment [1] deals with Actinetobacter sp. 51-156. To be noted: read-out: MIC (Minimum Inhibiting Concentration). Here is the method:
(§1) In vitro activity was determined by minimum inhibitory concentration in a microorganism spectum by the agar dilution method in Mueller Hinton agar.

The subject of experiment [2] is C. freundii 43. As to conditions: Citrobacter freundii, read-out: MIC (Minimum Inhibiting Concentration). The protocol:
as §1

Experiment [3] concerns C. freundii 902. To be noted: Citrobacter freundii, read-out: MIC (Minimum Inhibiting Concentration). The protocol: as §1
The test system of experiment [4] is E. cloacae 908R. As to conditions: Enterobacter cloacae, read-out: MIC (Minimum Inhibiting Concentration). The protocol:
as §1

Experiment [5] concerns E. cloacae 908SSi. To be noted: Enterobacter cloacae, read-out: MIC (Minimum Inhibiting Concentration). The protocol: as §1
Experiment [6] deals with E. coli 25922. To be noted: Escherichia coli, read-out: MIC (Minimum Inhibiting Concentration). Here is the method: as §1
In experiment [7] the test system is E. faecalis 6. As to conditions: Enterococcus faecalis, read-out: MIC (Minimum Inhibiting Concentration). Here is the method: as §1
The subject of experiment [8] is K. pneumoniae 418. To be noted: Klebsiella pneumoniae, read-out: MIC (Minimum Inhibiting Concentration). The protocol: as §1
For experiment [9], the system named is L. monocytogenes BK23. As to conditions: Listeria monocytogenes, read-out: MIC (Minimum Inhibiting Concentration). The protocol: as §1
Experiment [10] relates to M. catarrhalis RA21. To be noted: Moraxella catarrhalis, read-out: MIC (Minimum Inhibiting Concentration). Here is the method: as §1
Experiment [11] relates to M. morganii 6H-137. As to conditions: Morganella morganii, 6H137, read-out: MIC (Minimum Inhibiting Concentration). Here is the method: as §1
Experiment [12] relates to P. mirabilis 2117. To be noted: Proteus mirabilis, read-out: MIC (Minimum Inhibiting Concentration). Here is the method:
as §1

In experiment [13] the test system is P. vulgaris 1028. To be noted: Proteus vulgaris, read-out: MIC (Minimum Inhibiting Concentration). The protocol:
as §1

Experiment [14] relates to S. agalactiae QK44. To be noted: Streptococcus agalactiae, read-out: MIC (Minimum Inhibiting Concentration). The protocol: as §1
Experiment [15] concerns S. aureus 6538. As to conditions: Staphylococcus aureus, read-out: MIC (Minimum Inhibiting Concentration). The protocol: as §1
Experiment [16] concerns S. aureus 734 MRSA. As to conditions: Staphylococcus aureus, read-out: MIC (Minimum Inhibiting Concentration). Here is the method: as §1
Experiment [17] relates to S. marcescens 69438. As to conditions: Serratia marcescens, read-out: MIC (Minimum Inhibiting Concentration). The protocol:
as §1

The subject of experiment [18] is S. pneumoniae Q19. To be noted: Streptococcus pneumoniae, read-out: MIC (Minimum Inhibiting Concentration). The protocol:
as §1

Experiment [19] relates to S. pyogenes B15. To be noted: Streptococcus pyogenes, read-out: MIC (Minimum Inhibiting Concentration). Here is the method: as §1
The subject of experiment [20] is S. viridans group 016. As to conditions: Streptococcus viridans, GROUP016, read-out: MIC (Minimum Inhibiting Concentration). Here is the method: as §1
Experiment [21] has as its system X. maltophilia 1AC739. As to conditions: Stenotrophomonas maltophilia, read-out: MIC (Minimum Inhibiting Concentration). Here is the method: as §1
In experiment [22] the test system is H. influenzae 1. To be noted: Haemophilus influenzae, read-out: MIC (Minimum Inhibiting Concentration). Here is the method:
as §1

Experiment [23] relates to N. meningitidis 69480. To be noted: Neisseria meningitidis, read-out: MIC (Minimum Inhibiting Concentration). Here is the method:
as §1

Experiment [24] deals with P. aeruginosa 27853. As to conditions: Pseudomonas aeruginosa, read-out: MIC (Minimum Inhibiting Concentration). Here is the method: as §1

In brackets after ≈: the same amount, converted by molar mass. Counter-ions that a name gives are not always drawn.

For the compound `CC(C)(C)CN1CC/C(=C\C2=C(C(=O)O)N3C(=O)[C@@H](NC(=O)/C(=N\O)c4csc(N)n4)[C@H]3SC2)C1=O` [B, (6R,7R)-7-[(Z)-2-(2-amino-thiazol-4-yl)-2-(hydroxyiminoacetylamino]-3-[(E)-1-(2,2-dimethyl-propyl)-2-oxo-pyrrolidin-3-ylidenemethyl]-8-oxo-5-thia-1-azabicyclo[4.2.0]oct-2-ene-2-carboxylic acid trifluoroacetate], the MIC turned out to be 32 µg/mL in experiment [1]; 8 µg/mL in [2]; 1 µg/mL in [3]; 32 µg/mL in experiment [4]; 2 µg/mL in experiment [5]; 1 µg/mL in [6]. The MIC in experiment [7] worked out at 2 µg/mL; in experiment [8] it was 1 µg/mL; in experiment [9], 4 µg/mL; in experiment [10] it was 16 µg/mL; in experiment [11] it was 0.5 µg/mL; in experiment [12], 0.25 µg/mL. In addition, the MIC was 4 µg/mL in experiment [13]; 0.5 µg/mL in [14]; 1 µg/mL in experiment [15]; 16 µg/mL in experiment [16]; 4 µg/mL in [17]; not above 0.06 µg/mL in experiment [18]. Further, the MIC in [19] was not above 0.06 µg/mL; in [20], 1 µg/mL; in experiment [21], more than 32 µg/mL.

Take `Nc1nc(/C(=N/O)C(=O)N[C@@H]2C(=O)N3C(C(=O)O)=C(/C=C4\CCN(CC5CCCCC5)C4=O)CS[C@H]23)cs1` [C, (6R,7R)-7-[(Z)-2-(2-amino-thiazol-4-yl)-2-(hydroxyiminoacetylamino]-3-[(E)-1-cyclohexylmethyl-2-oxo-pyrrolidin-3-ylidenemethyl]-8-oxo-5-thia-1-azabicyclo[4.2.0]oct-2-ene-2-carboxylic acid trifluoroacetate]: the MIC in experiment [1] was 16 µg/mL; in experiment [2], 8 µg/mL; in [3], 1 µg/mL; in experiment [4], 16 µg/mL; in experiment [5], 2 µg/mL; in experiment [6], 1 µg/mL. In addition, the MIC in experiment [7] was 2 µg/mL; in experiment [8] it was 1 µg/mL; in [9] it was 4 µg/mL; in experiment [10], 16 µg/mL; in [11], 4 µg/mL; in [12], 0.5 µg/mL. For the same compound, the MIC in experiment [13] was 0.5 µg/mL; in experiment [14], 0.25 µg/mL; in [15], 1 µg/mL; in experiment [16] it was 8 µg/mL; in experiment [17] it was 4 µg/mL; in [18], not above 0.06 µg/mL. Besides, the MIC in [19] is not above 0.06 µg/mL; in [20], 0.5 µg/mL; in experiment [21] it was more than 32 µg/mL.

As for `CO/N=C(\C(=O)N[C@@H]1C(=O)N2C(C(=O)O)=C(CSc3nc(=O)c(=O)[nH]n3C)CS[C@H]12)c1csc(N)n1` [Ceftriaxone, [6R-[6a,7b(Z)]]-7-([[2-Amino-4-thiazolyl)(methoxyimino)acetyl]amino]-8-oxo-3-[[(1,2,5,6-tetrahydro-2-methyl-5,6dioxo-1,2,4-triazin-3-yl)thio]methyl]-5-thia-1-azabicyclo[4.2.0]oct-2-ene-2-carboxylic acid, reference compound], the MIC in experiment [1] was 32 µg/mL (≈ 57.7 µM); in [2], 32 µg/mL (≈ 57.7 µM); in [3] it was 0.25 µg/mL (≈ 0.451 µM); in [4], more than 32 µg/mL; in experiment [5], 0.25 µg/mL (≈ 0.451 µM); in experiment [6] it was not above 0.06 µg/mL. Besides, the MIC is more than 32 µg/mL in experiment [7]; not above 0.06 µg/mL in [22]; not above 0.06 µg/mL in experiment [8]; more than 16 µg/mL in experiment [9]; 1 µg/mL (≈ 1.8 µM) in experiment [10]; not above 0.06 µg/mL in experiment [11]. For the same compound, the MIC was not above 0.01 µg/mL in experiment [23]; 16 µg/mL (≈ 28.9 µM) in experiment [24]; not above 0.06 µg/mL in experiment [12]; 0.12 µg/mL (≈ 0.216 µM) in [13]; not above 0.06 µg/mL in [14]; 4 µg/mL (≈ 7.21 µM) in experiment [15]. In addition, the MIC in experiment [16] was more than 32 µg/mL; in experiment [17], 0.25 µg/mL (≈ 0.451 µM); in [18], not above 0.06 µg/mL; in experiment [19], not above 0.06 µg/mL; in experiment [20] it was 0.25 µg/mL (≈ 0.451 µM); in experiment [21] it was more than 32 µg/mL.

For the compound `C=CC1=C(C(=O)O)N2C(=O)[C@@H](NC(=O)/C(=N\O)c3csc(N)n3)[C@H]2SC1` [Cefdinir, reference compound], the MIC was more than 32 µg/mL in [1]; more than 32 µg/mL in experiment [2]; 16 µg/mL (≈ 40.5 µM) in experiment [3]; more than 32 µg/mL in [4]; 32 µg/mL (≈ 80.9 µM) in [5]; 0.25 µg/mL (≈ 0.632 µM) in experiment [6]. Also, the MIC in [7] worked out at 8 µg/mL (≈ 20.2 µM); in [22], 0.5 µg/mL (≈ 1.26 µM); in experiment [8], 0.12 µg/mL (≈ 0.303 µM); in [9] it was 16 µg/mL (≈ 40.5 µM); in experiment [10], 1 µg/mL (≈ 2.53 µM); in experiment [11] it was 8 µg/mL (≈ 20.2 µM). Also, the MIC in [23] was not above 0.06 µg/mL; in experiment [24], more than 32 µg/mL; in [12] it was 0.12 µg/mL (≈ 0.303 µM); in [13], 1 µg/mL (≈ 2.53 µM); in experiment [14], 0.25 µg/mL (≈ 0.632 µM); in [15] it was 0.5 µg/mL (≈ 1.26 µM). In addition, the MIC is more than 32 µg/mL in [16]; 16 µg/mL (≈ 40.5 µM) in experiment [17]; 0.25 µg/mL (≈ 0.632 µM) in experiment [18]; not above 0.06 µg/mL in [19]; 2 µg/mL (≈ 5.06 µM) in experiment [20]; more than 32 µg/mL in experiment [21].

For `CC(C)CN1CC/C(=C\C2=C(C(=O)O)N3C(=O)[C@@H](NC(=O)/C(=N\O)c4csc(N)n4)[C@H]3SC2)C1=O.O=C(O)C(F)(F)F` [A, (6R,7R)-7-[(Z)-2-(2-amino-thiazol-4-yl)-2-hydroxyiminoacetylamino]-3-[(E)-1-isobutyl-2-oxo-pyrrolidin-3-ylidenemethyl]-8-oxo-5-thia-1-azabicyclo[4.2.0]oct-2-ene-2-carboxylic acid trifluoroacetate], the MIC in [1] was 16 µg/mL; in [2] it was 4 µg/mL; in [3] it was 0.25 µg/mL; in [4], 16 µg/mL; in experiment [5], 0.5 µg/mL; in experiment [6], 0.25 µg/mL. For the same compound, the MIC in [7] was 1 µg/mL; in experiment [8] it was 0.5 µg/mL; in [9], 4 µg/mL; in experiment [10], 1 µg/mL; in experiment [11], 0.25 µg/mL; in [12], 0.25 µg/mL. In addition, the MIC in experiment [14] is 0.25 µg/mL; in [15] it was 1 µg/mL; in experiment [16], 4 µg/mL; in experiment [17], 1 µg/mL; in experiment [18] it was not above 0.06 µg/mL; in [19], not above 0.06 µg/mL. In addition, the MIC in [20] was not above 0.06 µg/mL; in experiment [21], more than 32 µg/mL.
